Reference: article PMC9098913, “In vitro reconstitution of Escherichia coli divisome activation” (Nature Communications, 2022)

Assay: Diffusion coefficient (Dcoeff) of FtsA from FRAP
Details: for Diffusion Coefficient, mean: Fig. 3j; for Dcoeff: Fig. S3i/S3j
Text: We could also use the data from these bleaching experiments to quantify the membrane-binding kinetics and diffusion of membrane-bound proteins by analysing the change of the fluorescence profile during recovery.
Equimolar concentrations of Cy3- and Cy5-labelled FtsA, supplemented with 20% unlabelled FtsA were used to study FRET and FRAP. Five pre-bleach frames were acquired, followed by acceptor photobleaching of a rectangular ROI with 40% 641 nm laser power and a dwell size of 1 µs/pixel, 75% overlapping lines. The recovery of the signal or the increase in donor intensity were measured with either two frames or one frame per second.
Bleaching the acceptor dye leads to an increase in the donor intensity, which can be used to quantify the Foerster Resonance energy transfer (FRET)[48]. FRET efficiency was quantified with E%=Ipost/Ipost+Ipre⋅100 , where Ipost is the intensity of the […] and Ipre is the […]. […] To extract the contribution of both processes, we adjusted a routine recently published by Gerganova et al.[33]. In short, the code provides the contribution of both modes of recovery by analysing the shape of the fluorescence recovery profile. […] Contribution of diffusion leads to a change of the slope of the outer borders of the bleached region (S4h right). Thus, by measuring the change of the slope of the border recovery, diffusion and simple on/off binding can be distinguished. We developed “FRAPdiff”, a graphical user interface, which uses the original fit routine by David Rutkowski. It can be used directly on.tiff movies with annotated bleach regions as ImageJ ROIs. In addition, we added optional bleach correction, user selectable projection axis (x or y), and optional mirroring of the recovery profiles, if bleaching was not symmetric. The original fit routine for estimating the recovery and diffusion dynamics can be found at https://github.com/davidmrutkowski/1DReflectingDiffusion. FRAPdiff is available at 10.5281/zenodo.6400639[49] under the GPLv3 open-source license.

## FtsA WT: wild-type E. coli actin-homologue FtsA, membrane anchor of FtsZ
0.2µM, + FtsZ, replicate Exp.4
  Diffusion Coefficient: 4.01E-02
0.2µM, + FtsZ, replicate Exp.5
  Diffusion Coefficient: 7.03E-05
0.2µM, + FtsZ, replicate Exp.6
  Diffusion Coefficient: 2.65E-03
0.2µM, + FtsZ, replicate Exp.7
  Diffusion Coefficient: 9.70E-04
0.4 µM FtsA + N
  Diffusion Coefficient, mean: 1.74E-03 µm2/s
0.4 µM FtsA + Z&N
  Diffusion Coefficient, mean: 1.31E-03 µm2/s
0.4 µM FtsA + Z
  Diffusion Coefficient, mean: 9.28E-04 µm2/s
0.4µM FtsA alone, Mean, n=18 (WT), 9 (R286W)
  Diffusion Coefficient: 0.0094
0.4 µM FtsA alone
  Diffusion Coefficient, mean: 9.38E-03 µm2/s
0.4µM FtsA alone, replicate Exp.1
  Diffusion Coefficient: 1.66E-03
0.4µM FtsA alone, replicate Exp.10
  Diffusion Coefficient: 2.61E-04
0.4µM FtsA alone, replicate Exp.11
  Diffusion Coefficient: 2.61E-03
0.4µM FtsA alone, replicate Exp.12
  Diffusion Coefficient: 1.80E-02
0.4µM FtsA alone, replicate Exp.13
  Diffusion Coefficient: 3.92E-03
0.4µM FtsA alone, replicate Exp.14
  Diffusion Coefficient: 4.91E-02
0.4µM FtsA alone, replicate Exp.15
  Diffusion Coefficient: 1.40E-02
0.4µM FtsA alone, replicate Exp.16
  Diffusion Coefficient: 4.71E-05
0.4µM FtsA alone, replicate Exp.17
  Diffusion Coefficient: 6.43E-03
0.4µM FtsA alone, replicate Exp.18
  Diffusion Coefficient: 3.05E-04
0.4µM FtsA alone, replicate Exp.2
  Diffusion Coefficient: 7.21E-03
0.4µM FtsA alone, replicate Exp.3
  Diffusion Coefficient: 3.35E-02
0.4µM FtsA alone, replicate Exp.4
  Diffusion Coefficient: 6.07E-07
0.4µM FtsA alone, replicate Exp.5
  Diffusion Coefficient: 4.86E-04
0.4µM FtsA alone, replicate Exp.6
  Diffusion Coefficient: 1.29E-02
0.4µM FtsA alone, replicate Exp.7
  Diffusion Coefficient: 1.54E-02
0.4µM FtsA alone, replicate Exp.8
  Diffusion Coefficient: 3.15E-04
0.4µM FtsA alone, replicate Exp.9
  Diffusion Coefficient: 2.76E-03
0.4 µM FtsA, FRAP, p-value […] 10^−6
  Diffusion Coefficient: 0.01 ± 0.01 µm^2/s
0.4µM, + FtsN&Z, Mean, n=6 (WT), 9 (R286W)
  Diffusion Coefficient: 0.0013
0.4µM, + FtsN&Z, replicate Exp.1
  Diffusion Coefficient: 7.97E-04
0.4µM, + FtsN&Z, replicate Exp.2
  Diffusion Coefficient: 2.09E-03
0.4µM, + FtsN&Z, replicate Exp.3
  Diffusion Coefficient: 9.40E-04
0.4µM, + FtsN&Z, replicate Exp.4
  Diffusion Coefficient: 3.16E-04
0.4µM, + FtsN&Z, replicate Exp.5
  Diffusion Coefficient: 3.44E-03
0.4µM, + FtsN&Z, replicate Exp.6
  Diffusion Coefficient: 3.02E-04
0.4µM, + FtsN, Mean, n=5 (WT), 6 (R286W)
  Diffusion Coefficient: 0.0017
0.4µM, + FtsN, replicate Exp.1
  Diffusion Coefficient: 1.54E-03
0.4µM, + FtsN, replicate Exp.2
  Diffusion Coefficient: 2.97E-03
0.4µM, + FtsN, replicate Exp.3
  Diffusion Coefficient: 2.28E-03
0.4µM, + FtsN, replicate Exp.4
  Diffusion Coefficient: 1.80E-03
0.4µM, + FtsN, replicate Exp.5
  Diffusion Coefficient: 1.27E-04
0.4µM, + FtsZ, Mean, n=5 (WT), 8 (R286W)
  Diffusion Coefficient: 0.0009
0.4µM, + FtsZ, replicate Exp.1
  Diffusion Coefficient: 1.81E-03
0.4µM, + FtsZ, replicate Exp.2
  Diffusion Coefficient: 9.21E-04
0.4µM, + FtsZ, replicate Exp.3
  Diffusion Coefficient: 2.54E-06
0.4µM, + FtsZ, replicate Exp.4
  Diffusion Coefficient: 1.48E-07
0.4µM, + FtsZ, replicate Exp.5
  Diffusion Coefficient: 1.91E-03
0.8 µM FtsA + N
  Diffusion Coefficient, mean: 2.78E-04 µm2/s
0.8 µM FtsA + Z&N
  Diffusion Coefficient, mean: 1.55E-03 µm2/s
0.8 µM FtsA + Z
  Diffusion Coefficient, mean: 1.98E-04 µm2/s
0.8µM FtsA alone, Mean, n=19 (WT), 8 (R286W)
  Diffusion Coefficient: 0.0008
0.8 µM FtsA alone
  Diffusion Coefficient, mean: 8.23E-04 µm2/s
0.8µM FtsA alone, replicate Exp.1
  Diffusion Coefficient: 7.29E-03
0.8µM FtsA alone, replicate Exp.10
  Diffusion Coefficient: 4.22E-07
0.8µM FtsA alone, replicate Exp.11
  Diffusion Coefficient: 6.76E-05
0.8µM FtsA alone, replicate Exp.12
  Diffusion Coefficient: 1.41E-04
0.8µM FtsA alone, replicate Exp.13
  Diffusion Coefficient: 9.30E-04
0.8µM FtsA alone, replicate Exp.14
  Diffusion Coefficient: 4.15E-06
0.8µM FtsA alone, replicate Exp.15
  Diffusion Coefficient: 1.75E-03
0.8µM FtsA alone, replicate Exp.16
  Diffusion Coefficient: 1.00E-03
0.8µM FtsA alone, replicate Exp.17
  Diffusion Coefficient: 1.78E-04
0.8µM FtsA alone, replicate Exp.18
  Diffusion Coefficient: 3.36E-03
0.8µM FtsA alone, replicate Exp.19
  Diffusion Coefficient: 2.24E-04
0.8µM FtsA alone, replicate Exp.2
  Diffusion Coefficient: 2.12E-04
0.8µM FtsA alone, replicate Exp.3
  Diffusion Coefficient: 6.52E-08
0.8µM FtsA alone, replicate Exp.4
  Diffusion Coefficient: 1.44E-04
0.8µM FtsA alone, replicate Exp.5
  Diffusion Coefficient: 5.47E-08
0.8µM FtsA alone, replicate Exp.6
  Diffusion Coefficient: 4.93E-07
0.8µM FtsA alone, replicate Exp.7
  Diffusion Coefficient: 2.75E-04
0.8µM FtsA alone, replicate Exp.8
  Diffusion Coefficient: 6.96E-06
0.8µM FtsA alone, replicate Exp.9
  Diffusion Coefficient: 4.32E-05
0.8µM, + FtsN&Z, Mean, n=5 (WT), 4 (R286W)
  Diffusion Coefficient: 0.0015
0.8µM, + FtsN&Z, replicate Exp.1
  Diffusion Coefficient: 2.13E-03
0.8µM, + FtsN&Z, replicate Exp.2
  Diffusion Coefficient: 1.07E-06
0.8µM, + FtsN&Z, replicate Exp.3
  Diffusion Coefficient: 6.03E-04
0.8µM, + FtsN&Z, replicate Exp.4
  Diffusion Coefficient: 3.04E-03
0.8µM, + FtsN&Z, replicate Exp.5
  Diffusion Coefficient: 1.98E-03
0.8µM, + FtsN, Mean, n=4 (WT), 3 (R286W)
  Diffusion Coefficient: 0.000278
0.8µM, + FtsN, replicate Exp.1
  Diffusion Coefficient: 2.14E-05
0.8µM, + FtsN, replicate Exp.2
  Diffusion Coefficient: 6.16E-05
0.8µM, + FtsN, replicate Exp.3
  Diffusion Coefficient: 1.34E-04
0.8µM, + FtsN, replicate Exp.4
  Diffusion Coefficient: 8.93E-04
0.8µM, + FtsZ, Mean, n=3 (WT), 8 (R286W)
  Diffusion Coefficient: 0.0002
0.8µM, + FtsZ, replicate Exp.1
  Diffusion Coefficient: 7.26E-07
0.8µM, + FtsZ, replicate Exp.2
  Diffusion Coefficient: 4.83E-04
0.8µM, + FtsZ, replicate Exp.3
  Diffusion Coefficient: 1.10E-04
0.10 µM FtsA, replicate 1
  Dcoeff: 5.58E-02 µm2/s
0.10 µM FtsA, replicate 2
  Dcoeff: 3.42E-03 µm2/s
0.10 µM FtsA, replicate 3
  Dcoeff: 1.87E-02 µm2/s
0.10 µM FtsA, replicate 4
  Dcoeff: 5.22E-02 µm2/s
0.10 µM FtsA, summary value
  Dcoeff: 2.68E-02 µm2/s
0.20 µM FtsA, summary value
  Dcoeff: 1.77E-02 µm2/s
0.40 µM FtsA, summary value
  Dcoeff: 9.38E-03 µm2/s
0.80 µM FtsA, summary value
  Dcoeff: 8.23E-04 µm2/s
